# Measured values as given in paper PMC8653689, “Phenanthrotriazine Derivatives Containing Arylidine Hydrazone Moieties as Novel Potential c-Met Inhibitors with Anticancer Effect” (Iranian Journal of Pharmaceutical Research : IJPR, 2021).
# Read-outs that look alike come from different tables or passages of the source.
# Columns and labels:
# [1] = tested on: MOLT-4 (lymphoblastic leukemia) cells; assay: MTT reduction assay, antiproliferative effect, MOLT-4; assay type: cell-based, human; conditions: read-out: MOLT-4 IC50
# From the text: (§1) Fetal bovine serum (FBS), phosphate-buffered saline (PBS), RPMI-1640, and trypsin were obtained from Biosera (Ringmer, UK). Penicillin/streptomycin and MTT (3-(4,5-dimethylthiazol-2-yl)-2,5-diphenyltetrazolium bromide) were from Sigma-Aldrich (Saint Louis, MO, USA) and Invitrogen (San Diego, CA, USA), respectively. Dimethyl sulfoxide and doxorubicin were purchased from Merck (Darmstadt, Germany) and EBEWE Pharma (Unterach, Austria), respectively. The cells were acquired from Iranian Biological Resource Center, Tehran, Iran (HT-29 (human colorectal adenocarcinoma), MCF-7 (human breast adenocarcinoma) and Vero (African green monkey kidney) cells) or National Cell Bank of Iran, Pasteur Institute, Tehran, Iran (MOLT-4 (lymphoblastic leukemia) cells).
# (§2) MTT reduction assay was employed to assess the viability of cancer cells after being treated with synthesized derivatives as previously described ([34]). The cells were plated in flat-bottom 96-well microplates, at densities of 3 × 10^4 cells/mL (100 μL in each well) and then incubated overnight at 37 °C. Three to four different concentrations of synthesized derivatives (in the range of 1 to 100 μM) were placed in triplicate wells and the plates were incubated for 72 h at 37 °C. […] At the end of the incubation time, 80 μL of the media in each well was replaced with the same amount of growth medium without phenol red containing 0.5 mg/mL of MTT. Cells were further incubated at 37 °C for 4 h and then 80 μL of the solution of each well was removed. The addition of DMSO (200μL) to each well solubilized the formazan crystals formed inside the viable cells after 1-hour incubation followed by 30-minute shaking. The optical absorbance of the final solution was determined at 570 nm using a Bio-Tek multimode plate reader (Synergy HTX). The cell viability was calculated compared to untreated control cells by comparison of absorbance measurements. CurveExpert software (version 1.34 for Windows) was used to determine the IC50 value for each compound. To confirm the results, every experiment was repeated 3 to 5 times.
# [2] = tested on: Vero (African green monkey kidney) cells; assay: MTT reduction assay, Vero normal cells; assay type: cell-based; conditions: read-out: Vero IC50
# From the text: as §1, §2
# [3] = tested on: HT-29 (human colorectal adenocarcinoma) cells; assay: MTT reduction assay, antiproliferative effect, HT-29; assay type: cell-based; conditions: for IC50: read-out: HT-29 IC50; for viability at 25 µM: cell line not named in the sentence (NA in HT-29, MCF-7, MOLT-4 in Table 1), read-out: Cell viability at the highest tested concentration
# From the text: as §1, §2
# [4] = tested on: MCF-7 (human breast adenocarcinoma) cells; assay: MTT reduction assay, antiproliferative effect, MCF-7; assay type: cell-based
# From the text: as §1, §2
# [5] = tested on: MCF-7 cells; assay: Hoechst 33258 staining, detection of apoptosis; assay type: cell-based, human; conditions: MCF-7, 72 h treatment, especially at 25 µM
# Method: Hoechst 33258 was used as a DNA stain to detect apoptosis in cells. MCF-7 cells were seeded in a 6-well plate at a density of 5 × 10^4 cells/mL (2 mL per well) and incubated for 24 h. The whole medium was removed and different concentrations of test compounds 9g, 9j, 9k, and 9l diluted in 2 mL medium were placed in the different wells and incubated for 72 h. Afterward, the medium was removed again, 1 mL of 4% cold freshly prepared paraformaldehyde (PFA) was added, and cells were incubated for 20 min at room temperature. The cells were then washed 2 times with 1 ml PBS and incubated with 1 mL Hoechst 33258 2.5 µg/mL for 30 min in the dark at room temperature ([36], [37]). In the end, the cells were washed with 1 mL PBS and imaged with a fluorescence microscope.
# Figure 3 Detection of apoptosis in MCF-7 cells by Hoechst staining. Hoechst 33258 was used as a DNA stain to detect apoptosis in MCF-7 cells treated with synthesized compounds. The cells were seeded in a 6-well plates and treated with different concentrations of test compounds 9g, 9j, 9k and 9l for 72 h. After removing the whole medium, 4% cold freshly prepared paraformaldehyde (PFA) was added for 20 min at room temperature, the cells were then washed twice with PBS, and incubated with Hoechst 33258 2.5 µg/mL for 30 min at room temperature in the dark. Finally, the cells were washed with PBS again and the plates were imaged with a fluorescence microscope
# [6] = tested on: MCF-7 cells; assay: Cell cycle analysis, propidium iodide/RNase flow cytometric assay; assay type: cell-based, human; conditions: 48 h; for Effect on number of cells in G0/G1: MCF-7, 10 and 25 µM
# Method: Alterations of the cell cycle were determined by the propidium iodide (PI)-RNase flow cytometric method ([35]). MCF-7 cells were used to determine the percentage of cells in each phase of the cell cycle. In 6-well plates, 2 × 10^5 cells were seeded in each well and incubated at 37 °C for 48 h. Afterward, they were treated for 48 h with derivatives 9g, 9j, 9k and 9l at 10 and 25 μM. The cells were then collected after trypsinization, washed twice with PBS, and fixed by 5 mL ethanol 70% for at least 24 h at -20 °C. After fixation, MCF-7 cells were washed with PBS two times and stained with PI 20 µg/mL and RNase 200 µg/mL for 30 min in the dark at room temperature. A FACS Calibur ﬂow cytometer (BD Biosciences) was used for the assays and 20,000 events were analyzed. The number of cells distributed in sub-G1, G0/G1, S, and G2/M were determined by CellQuest software (BD, USA).
# Figure 2 Representative cell cycle histograms of MCF-7 cells treated with synthesized derivatives. Analysis of the percentage of cells in different phases of cell cycle was performed using propidium iodide (PI)-RNase flow cytometric assay. MCF-7 cells were seeded in 6-well microplates and treated with synthesized derivatives for 48 h. The cells were then collected and fixed in 70% ethanol overnight at -20 °C. In the end, the cells were stained with DNA staining solution (PI 20 µg/mL and RNase 200 µg/mL) for 30 min and 20,000 events were analyzed by a FACS Calibur ﬂow cytometer (BD Biosciences). Representative histograms of cells treated with compounds 9g, 9j, 9k and 9l are shown
# [7] = Chlorocebus sabaeus, Vero, 72 h
# [8] = Homo sapiens, MCF7, 72 h, read-out: MCF-7 IC50, MTT, 72 h incubation
smiles,measurement,setting,value
"N.N.[Cl][Pt][Cl] [Cisplatin, reference compound]",IC50,"[1]; MTT, 72 h incubation",2.9 ± 0.2 µM
same,IC50,"[2]; MTT, 72 h incubation, normal cells",7.8 ± 1 µM
same,IC50,"[3]; MTT, 72 h incubation",24.6 ± 3.6 µM
same,IC50,"[4]; MTT, 72 h incubation, read-out: MCF-7 IC50",8.1 ± 2.6 µM
"C(=NNc1nnc2c3ccccc3c3ccccc3c2n1)c1ccccc1 [Compound 9a, 3-(2-benzylidenehydrazinyl)phenanthro [9,10-e][1,2,4]triazine]",viability at 25 µM,"[3]; Homo sapiens, MTT",≥ 50%
same,melting point,,286 to 290 °C
"COc1ccccc1C=NNc1nnc2c3ccccc3c3ccccc3c2n1 [Compound 9b, 3-(2-(2-methoxybenzylidene)hydrazinyl)phenanthro[9,10-e][1,2,4]triazine]",IC50,"[1]; Homo sapiens, MOLT-4, 72 h",7.8 ± 1.8 µM
same,IC50,[2]; [7],13 ± 1.8 µM
same,IC50,"[3]; Homo sapiens, HT-29, 72 h",20.1 ± 3 µM
same,melting point,,252 to 254 °C
same,IC50,[4]; [8],15.2 ± 3.1 µM
"Oc1cccc(C=NNc2nnc3c4ccccc4c4ccccc4c3n2)c1 [Compound 9e, 3-((2-(phenanthro[9,10-e][1,2,4]triazin-3-yl)hydrazono)methyl)phenol]",IC50,"[1]; Homo sapiens, MOLT-4, 72 h",4.4 ± 1.1 µM
same,IC50,[2]; [7],30 ± 6 µM
same,IC50,"[3]; Homo sapiens, HT-29, 72 h",15.2 ± 2.1 µM
same,melting point,,219 to 223 °C
same,IC50,[4]; [8],9.3 ± 1.6 µM
"Oc1cccc(C=NNc2nnc3c4ccccc4c4ccccc4c3n2)c1O [Compound 9f, 3-((2-(phenanthro[9,10-e][1,2,4]triazin-3-yl)hydrazono)methyl)benzene-1,2-diol]",viability at 25 µM,"[3]; Homo sapiens, MTT",≥ 50%
same,melting point,,329 to 333 °C
"O=[N+]([O-])c1ccccc1C=NNc1nnc2c3ccccc3c3ccccc3c2n1 [Compound 9g, 3-(2-(2-nitrobenzylidene)hydrazinyl)phenanthro[9,10-e][1,2,4]triazine]",IC50,"[1]; Homo sapiens, MOLT-4, 72 h",5.4 ± 1 µM
same,Apoptosis induction by Hoechst 33258 staining,[5],showed signs of apoptosis
same,Percentage of cells in G0/G1,"[6]; MCF-7, 10 µM",69.25 ± 2.1
same,Percentage of cells in G2/M,"[6]; MCF-7, 10 µM",18.58 ± 2.2
same,Percentage of cells in S,"[6]; MCF-7, 10 µM",8.79 ± 1.3
same,Percentage of cells in Sub G1,"[6]; MCF-7, 10 µM",1.35 ± 0.3
same,Effect on cells in sub-G1 phase,"[6]; MCF-7, 25 µM",increased the cells in the sub-G1 phase
same,Percentage of cells in G0/G1,"[6]; MCF-7, 25 µM",74.76 ± 4.9
same,Percentage of cells in G2/M,"[6]; MCF-7, 25 µM",13.97 ± 3.3
same,Percentage of cells in S,"[6]; MCF-7, 25 µM",7.58 ± 1.9
same,Percentage of cells in Sub G1,"[6]; MCF-7, 25 µM",1.82 ± 0.3
same,Effect on number of cells in G0/G1,[6],significantly enhanced the number of cells in the G0/G1
same,IC50,[2]; [7],11.1 ± 1 µM
same,IC50,"[3]; Homo sapiens, HT-29, 72 h",16.7 ± 2.2 µM
same,melting point,,225 to 229 °C
same,IC50,[4]; [8],6.2 ± 1.3 µM
"O=[N+]([O-])c1cccc(C=NNc2nnc3c4ccccc4c4ccccc4c3n2)c1 [Compound 9h, 3-(2-(3-nitrobenzylidene)hydrazinyl)phenanthro[9,10-e][1,2,4]triazine]",IC50,"[1]; Homo sapiens, MOLT-4, 72 h",3.9 ± 0.6 µM
same,IC50,[2]; [7],19.4 ± 6.8 µM
same,IC50,"[3]; Homo sapiens, HT-29, 72 h",12.2 ± 4.1 µM
same,melting point,,216 to 219 °C
same,IC50,[4]; [8],10.4 ± 2.9 µM
"O=[N+]([O-])c1ccc(C=NNc2nnc3c4ccccc4c4ccccc4c3n2)cc1 [Compound 9i, 3-(2-(4-nitrobenzylidene)hydrazinyl)phenanthro[9,10-e][1,2,4]triazine]",IC50,"[1]; Homo sapiens, MOLT-4, 72 h",7.5 ± 0.1 µM
same,IC50,[2]; [7],7.4 ± 1.4 µM
same,IC50,"[3]; Homo sapiens, HT-29, 72 h",7.6 ± 0.8 µM
same,melting point,,240 to 244 °C
same,IC50,[4]; [8],17.7 ± 1.7 µM
"N#Cc1ccc(C=NNc2nnc3c4ccccc4c4ccccc4c3n2)cc1 [Compound 9j, 4-((2-(phenanthro[9,10-e][1,2,4]triazin-3-yl)hydrazono)methyl)benzonitrile]",IC50,"[1]; Homo sapiens, MOLT-4, 72 h",5.5 ± 0.1 µM
same,Apoptosis induction by Hoechst 33258 staining,[5],showed signs of apoptosis
same,Percentage of cells in G0/G1,"[6]; MCF-7, 10 µM",71.40 ± 2.2
same,Percentage of cells in G2/M,"[6]; MCF-7, 10 µM",17.95 ± 3.0
same,Percentage of cells in S,"[6]; MCF-7, 10 µM",9.59 ± 2.0
same,Percentage of cells in Sub G1,"[6]; MCF-7, 10 µM",1.08 ± 0.2
same,Percentage of cells in G0/G1,"[6]; MCF-7, 25 µM",73.10 ± 3.0
same,Percentage of cells in G2/M,"[6]; MCF-7, 25 µM",17.51 ± 2.6
same,Percentage of cells in S,"[6]; MCF-7, 25 µM",8.09 ± 2.0
same,Percentage of cells in Sub G1,"[6]; MCF-7, 25 µM",1.30 ± 0.4
same,Effect on number of cells in G0/G1,[6],significantly enhanced the number of cells in the G0/G1
same,IC50,[2]; [7],11.3 ± 2.1 µM
same,IC50,"[3]; Homo sapiens, HT-29, 72 h",15.3 ± 1.5 µM
same,melting point,,231 to 234 °C
same,IC50,[4]; [8],5.8 ± 0.7 µM
"C(=NNc1nnc2c3ccccc3c3ccccc3c2n1)c1ccc[nH]1 [Compound 9k, 3-(2-((1H-pyrrol-2-yl)methylene)hydr-zinyl)phenanthro[9,10-e][1,2,4]triazine]",IC50,"[1]; Homo sapiens, MOLT-4, 72 h",1.7 ± 0.2 µM
same,Apoptosis induction by Hoechst 33258 staining,[5],showed signs of apoptosis
same,Percentage of cells in G0/G1,"[6]; MCF-7, 10 µM",77.30 ± 2.8
same,Percentage of cells in G2/M,"[6]; MCF-7, 10 µM",16.63 ± 2.5
same,Percentage of cells in S,"[6]; MCF-7, 10 µM",4.63 ± 0.7
same,Percentage of cells in Sub G1,"[6]; MCF-7, 10 µM",1.31 ± 0.1
same,Effect on cells in sub-G1 phase,"[6]; MCF-7, 25 µM",increased the cells in the sub-G1 phase
same,Percentage of cells in G0/G1,"[6]; MCF-7, 25 µM",77.42 ± 3.7
same,Percentage of cells in G2/M,"[6]; MCF-7, 25 µM",16.13 ± 2.9
same,Percentage of cells in S,"[6]; MCF-7, 25 µM",4.68 ± 1.2
same,Percentage of cells in Sub G1,"[6]; MCF-7, 25 µM",1.69 ± 0.4
same,Effect on number of cells in G0/G1,[6],significantly enhanced the number of cells in the G0/G1
same,IC50,[2]; [7],95.4 ± 12.4 µM
same,IC50,"[3]; Homo sapiens, HT-29, 72 h",14.3 ± 2.8 µM
same,melting point,,210 to 214 °C
same,IC50,[4]; [8],4.5 ± 0.16 µM
same,IC50,"[4]; read-out: MCF-7 IC50, MTT, 72 h incubation",4.7 ± 0.3 µM
"COc1cccc2c1C(=O)c1c(O)c3c(c(O)c1C2=O)C[C@@](O)(C(=O)CO)C[C@@H]3O[C@H]1C[C@H](N)[C@H](O)[C@H](C)O1 [Doxorubicin, reference compound]",IC50,"[1]; Homo sapiens, MOLT-4, MTT, 72 h incubation",0.017 ± 0.001 µM
same,IC50,"[2]; Chlorocebus sabaeus, Vero, MTT, 72 h incubation, normal cells",0.926 ± 0.031 µM
same,IC50,"[3]; Homo sapiens, HT-29, MTT, 72 h incubation",0.409 ± 0.038 µM
same,IC50,"[4]; Homo sapiens, MCF7, MTT, 72 h incubation, read-out: MCF-7 IC50",0.066 ± 0.007 µM
